Measured values as given in ChEMBL document CHEMBL1909046, “DrugMatrix in vitro pharmacology data”.

Experiments:
[1] = biological target: Beta-1 adrenergic receptor (Homo sapiens, UniProt P08588); experiment: DRUGMATRIX: Adrenergic beta1 radioligand binding (ligand: [125I] Cyanopindolol); assay type: cell membranes, CHO-K1, Membrane; settings: cho-k1; Not Active = under 50% inhibition at 10 µM
[2] = biological target: T1, 5-hydroxytryptamine receptor 2C (Homo sapiens, UniProt P28335); experiment: DRUGMATRIX: Serotonin (5-Hydroxytryptamine) 5-HT2C radioligand binding (ligand: [3H] Mesulergine); assay type: cell membranes, CHO-K1, Membrane; settings: cho-k1; Not Active = under 50% inhibition at 10 µM
T1 sequence (P28335 whole entry): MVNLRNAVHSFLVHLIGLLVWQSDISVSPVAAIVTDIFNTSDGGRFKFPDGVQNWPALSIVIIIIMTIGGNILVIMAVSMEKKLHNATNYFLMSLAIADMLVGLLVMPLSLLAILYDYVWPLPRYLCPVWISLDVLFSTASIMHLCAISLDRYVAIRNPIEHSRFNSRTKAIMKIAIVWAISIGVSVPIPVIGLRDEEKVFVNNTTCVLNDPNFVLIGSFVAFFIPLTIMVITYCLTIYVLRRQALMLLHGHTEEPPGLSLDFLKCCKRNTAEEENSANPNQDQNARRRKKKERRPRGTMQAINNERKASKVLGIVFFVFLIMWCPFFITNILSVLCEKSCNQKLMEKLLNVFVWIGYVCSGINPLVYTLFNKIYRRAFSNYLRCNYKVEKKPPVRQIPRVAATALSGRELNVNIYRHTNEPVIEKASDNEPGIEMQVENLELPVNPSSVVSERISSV

[3] = DRUGMATRIX: Phorbol Ester radioligand binding (ligand: [3H] PDBu); assay type: cell membranes, Mus musculus, ICR, Brain, Membrane; settings: Not Active = under 50% inhibition at 10 µM
[4] = DRUGMATRIX: Interleukin IL-1 radioligand binding (ligand: [125I] interleukin 1beta); assay type: cell membranes, Membrane; settings: nih3t3; Not Active = under 50% inhibition at 10 µM
[5] = biological target: T2, Thromboxane-A synthase (Homo sapiens, UniProt P24557); experiment: biochemical; assay type: tissue-based, Platelet; settings: platelet;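 note: enzyme inhibition assay with PGH2 supplied as substrate; in other assays of this panel Not Active means under 50% inhibition at 10 µM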
T2 sequence (P24557 whole entry): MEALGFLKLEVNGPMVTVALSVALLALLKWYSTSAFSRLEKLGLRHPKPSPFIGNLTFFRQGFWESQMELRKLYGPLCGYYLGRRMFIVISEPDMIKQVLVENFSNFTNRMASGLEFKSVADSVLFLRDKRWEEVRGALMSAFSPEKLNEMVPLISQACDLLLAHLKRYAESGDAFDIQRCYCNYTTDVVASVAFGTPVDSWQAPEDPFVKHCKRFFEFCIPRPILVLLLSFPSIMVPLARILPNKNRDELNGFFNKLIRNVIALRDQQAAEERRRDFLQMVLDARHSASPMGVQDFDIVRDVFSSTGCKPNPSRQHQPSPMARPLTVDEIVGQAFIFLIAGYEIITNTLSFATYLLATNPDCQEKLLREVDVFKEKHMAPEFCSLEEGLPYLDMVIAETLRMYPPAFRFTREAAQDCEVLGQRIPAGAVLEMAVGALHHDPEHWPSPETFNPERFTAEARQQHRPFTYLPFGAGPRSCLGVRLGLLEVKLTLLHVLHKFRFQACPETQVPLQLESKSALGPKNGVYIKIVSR

[6] = biological target: T3, Type-2 angiotensin II receptor (Homo sapiens, UniProt P50052); assay type: cell-based; settings: cho-k1; note: in other assays of this panel Not Active means under 50% inhibition at 10 µM
T3 sequence (P50052 whole entry): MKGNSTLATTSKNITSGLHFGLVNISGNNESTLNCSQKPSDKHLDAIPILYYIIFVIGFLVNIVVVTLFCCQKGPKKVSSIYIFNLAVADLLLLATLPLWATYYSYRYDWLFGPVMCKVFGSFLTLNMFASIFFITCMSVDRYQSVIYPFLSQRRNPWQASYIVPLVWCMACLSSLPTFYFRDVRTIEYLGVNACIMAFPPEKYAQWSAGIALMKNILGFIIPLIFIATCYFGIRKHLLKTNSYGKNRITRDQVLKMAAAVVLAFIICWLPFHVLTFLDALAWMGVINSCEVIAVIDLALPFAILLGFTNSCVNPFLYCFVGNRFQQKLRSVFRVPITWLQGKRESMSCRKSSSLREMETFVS

[7] = biological target: T4, Calcitonin receptor (Homo sapiens, UniProt P30988); assay type: cell membranes, Membrane; settings: t47d; note: in other assays of this panel Not Active means under 50% inhibition at 10 µM
T4 sequence (P30988 whole entry): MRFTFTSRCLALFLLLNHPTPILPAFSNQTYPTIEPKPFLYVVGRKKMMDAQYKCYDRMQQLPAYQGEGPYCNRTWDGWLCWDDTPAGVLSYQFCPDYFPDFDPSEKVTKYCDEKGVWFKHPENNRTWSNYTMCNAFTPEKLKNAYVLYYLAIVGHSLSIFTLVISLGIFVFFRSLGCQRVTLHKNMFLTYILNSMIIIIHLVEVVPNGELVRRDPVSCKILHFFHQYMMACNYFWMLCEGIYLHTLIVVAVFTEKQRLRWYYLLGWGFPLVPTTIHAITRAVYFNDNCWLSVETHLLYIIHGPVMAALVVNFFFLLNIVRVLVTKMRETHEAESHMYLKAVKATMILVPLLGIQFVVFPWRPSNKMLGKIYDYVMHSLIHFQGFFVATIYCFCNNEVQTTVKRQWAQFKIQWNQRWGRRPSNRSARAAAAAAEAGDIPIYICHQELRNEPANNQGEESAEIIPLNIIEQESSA

[8] = biological target: Cytochrome P450 2C9 (Homo sapiens, UniProt P11712); settings: bti-tn-5b1-4; note: in other assays of this panel Not Active means under 50% inhibition at 10 µM
Sequence of Cytochrome P450 2C9 (P11712 whole entry): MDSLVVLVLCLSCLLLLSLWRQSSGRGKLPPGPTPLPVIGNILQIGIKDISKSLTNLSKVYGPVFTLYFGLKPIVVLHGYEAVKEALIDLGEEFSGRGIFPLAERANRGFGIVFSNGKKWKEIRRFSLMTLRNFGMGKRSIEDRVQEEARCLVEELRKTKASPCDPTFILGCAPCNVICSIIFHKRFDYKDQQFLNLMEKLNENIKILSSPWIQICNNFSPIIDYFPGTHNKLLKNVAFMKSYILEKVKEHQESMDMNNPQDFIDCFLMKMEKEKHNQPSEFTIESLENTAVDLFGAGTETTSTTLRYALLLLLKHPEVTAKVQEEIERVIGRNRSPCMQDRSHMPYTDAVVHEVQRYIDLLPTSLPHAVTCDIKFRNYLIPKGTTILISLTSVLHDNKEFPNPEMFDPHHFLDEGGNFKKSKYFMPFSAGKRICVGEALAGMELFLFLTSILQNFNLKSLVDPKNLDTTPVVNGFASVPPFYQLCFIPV

Sequence of Beta-1 adrenergic receptor (P08588 whole entry): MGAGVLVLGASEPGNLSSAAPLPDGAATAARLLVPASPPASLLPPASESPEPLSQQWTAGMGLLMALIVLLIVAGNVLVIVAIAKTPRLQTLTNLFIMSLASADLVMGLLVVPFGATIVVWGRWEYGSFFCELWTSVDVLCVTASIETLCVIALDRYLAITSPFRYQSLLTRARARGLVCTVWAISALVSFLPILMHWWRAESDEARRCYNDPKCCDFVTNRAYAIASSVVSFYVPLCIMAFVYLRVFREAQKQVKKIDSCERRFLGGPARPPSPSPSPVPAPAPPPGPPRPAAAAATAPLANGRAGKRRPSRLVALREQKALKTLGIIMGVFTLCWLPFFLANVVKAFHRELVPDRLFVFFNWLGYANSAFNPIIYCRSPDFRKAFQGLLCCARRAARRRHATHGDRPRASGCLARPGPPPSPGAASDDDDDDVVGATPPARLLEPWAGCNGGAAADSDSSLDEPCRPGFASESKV

N[C@@H](Cc1ccc(F)cc1)C(=O)O
Not Active: IC50 [1] | IC50 [2] | IC50 [3] | Ki [3] | IC50 [4] | Ki [4] | IC50 [5] | IC50 [6] | IC50 [7]

O=C(c1ccccc1Cl)N1CCC(Cc2ccccc2)CC1
Not Active: IC50 [1] | IC50 [2] | IC50 [3] | Ki [3] | IC50 [4] | Ki [4] | IC50 [5] | IC50 [6] | IC50 [7]

C[C@@H]1CC[C@H]2[C@@H](C)C(=O)O[C@@H]3O[C@@]4(C)CC[C@@H]1[C@]32OO4 [ARTEMISININ]
Not Active: IC50 [1] | IC50 [2] | IC50 [3] | Ki [3] | IC50 [4] | Ki [4] | IC50 [5] | IC50 [6] | IC50 [7]

CCc1oc2ccccc2c1C(=O)c1cc(Br)c(O)c(Br)c1 [BENZBROMARONE]
Not Active: IC50 [1] | IC50 [2] | IC50 [3] | Ki [3] | IC50 [4] | Ki [4] | IC50 [5] | IC50 [6] | IC50 [7]

CCC[C@@H]1C[C@@H](C(=O)N[C@@H]([C@H]2O[C@H](SC)[C@H](O)[C@@H](O)[C@H]2O)[C@H](C)Cl)N(C)C1 [CLINDAMYCIN]
Not Active: IC50 [1] | IC50 [2] | IC50 [3] | Ki [3] | IC50 [4] | Ki [4] | IC50 [5] | IC50 [6] | IC50 [7]

C#C[C@]1(O)CC[C@H]2[C@@H]3CCC4=Cc5oncc5C[C@]4(C)[C@H]3CC[C@@]21C [DANAZOL]
Not Active: IC50 [1] | IC50 [2] | IC50 [3] | Ki [3] | IC50 [4] | Ki [4] | IC50 [5] | IC50 [6] | IC50 [7]

CN1C(=O)CN=C(c2ccccc2)c2cc(Cl)ccc21 [DIAZEPAM]
Not Active: IC50 [1] | IC50 [2] | IC50 [3] | Ki [3] | IC50 [4] | Ki [4] | IC50 [5] | IC50 [6] | IC50 [7]

CCOC(=O)C1=C(C)NC(C)=C(C(=O)OC)C1c1cccc(Cl)c1Cl (stereo unspecified) [FELODIPINE]
Not Active: IC50 [1] | IC50 [2] | IC50 [3] | Ki [3] | IC50 [4] | Ki [4] | IC50 [5] | IC50 [6] | IC50 [7]

Cc1cn[nH]c1 [FOMEPIZOLE]
Not Active: IC50 [1] | IC50 [2] | IC50 [3] | Ki [3] | IC50 [4] | Ki [4] | IC50 [5] | IC50 [6] | IC50 [7]

Cc1cnc(C(=O)NCCc2ccc(S(=O)(=O)NC(=O)NC3CCCCC3)cc2)cn1 [GLIPIZIDE]
Not Active: IC50 [1] | IC50 [2] | IC50 [3] | Ki [3] | IC50 [4] | Ki [4] | IC50 [5] | IC50 [6] | IC50 [7]

COc1ccccc1OCC(O)CO (stereo unspecified) [GUAIFENESIN]
Not Active: IC50 [1] | IC50 [2] | IC50 [3] | Ki [3] | IC50 [4] | Ki [4] | IC50 [5] | IC50 [6] | IC50 [7]

C/C=C\c1ccc(O)c(OC)c1 [ISOEUGENOL]
Not Active: IC50 [1] | IC50 [2] | IC50 [3] | Ki [3] | IC50 [4] | Ki [4] | IC50 [5] | IC50 [6] | IC50 [7]

NC[C@H]1O[C@H](O[C@H]2[C@H](O)[C@@H](O[C@H]3O[C@H](CO)[C@@H](O)[C@H](N)[C@H]3O)[C@H](N)C[C@@H]2N)[C@H](O)[C@@H](O)[C@@H]1O [KANAMYCIN]
Not Active: IC50 [8] | Ki [8] | IC50 [2] | IC50 [3] | Ki [3] | IC50 [4] | Ki [4] | IC50 [5] | IC50 [6] | IC50 [7]

CC[C@H](C)C(=O)O[C@H]1C[C@@H](C)C=C2C=C[C@H](C)[C@H](CC[C@@H]3C[C@@H](O)CC(=O)O3)[C@H]21 [LOVASTATIN]
Not Active: IC50 [1] | IC50 [2] | IC50 [3] | Ki [3] | IC50 [4] | Ki [4] | IC50 [5] | IC50 [6] | IC50 [7]

CC(=O)O[C@]1(C(C)=O)CC[C@H]2[C@@H]3C=C(C)C4=CC(=O)CC[C@]4(C)[C@H]3CC[C@@]21C [MEGESTROL ACETATE]
Not Active: IC50 [1] | IC50 [2] | IC50 [3] | Ki [3] | IC50 [4] | Ki [4] | IC50 [5] | IC50 [6] | IC50 [7]
